Source: patent publication US5292742A, “Angiotensin II receptor blocking 2,3,6 substituted quinazolinones” (American Cyanamid Company, priority 1993, dated 1994)

Molecular target: T1, Angiotensin II Receptor (Bos taurus, UniProt P25104)
T1 construct: The brownish tissue forming the adrenal cortex is scraped off and finely minced with scissors before homogenization; tissue Maxwell-Cohen (local slaughter house); host or cells: beef adrenal cortex, microsomal (100,000 x g) membranes
T1 sequence (P25104 1-359): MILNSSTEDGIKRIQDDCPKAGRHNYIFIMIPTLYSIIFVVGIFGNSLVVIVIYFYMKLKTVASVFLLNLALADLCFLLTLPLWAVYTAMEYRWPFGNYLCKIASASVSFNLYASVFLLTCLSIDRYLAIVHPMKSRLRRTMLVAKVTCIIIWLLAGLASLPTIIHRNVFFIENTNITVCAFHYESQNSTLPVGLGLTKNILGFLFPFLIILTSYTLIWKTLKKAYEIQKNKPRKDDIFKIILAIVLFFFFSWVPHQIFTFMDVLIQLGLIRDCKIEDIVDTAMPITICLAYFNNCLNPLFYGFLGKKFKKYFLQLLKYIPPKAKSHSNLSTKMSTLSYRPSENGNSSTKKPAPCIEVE
Test: [125I](Sar1,Ile8)AngII receptor binding assay, bovine adrenal cortex membranes
Details: beef adrenal cortex membranes
From the text: Beef adrenals are obtained from a local slaughter house (Maxwell-Cohen). [^125 I](Sar^1,ILe^8)-AngII, S.A. 2200 Ci/mmole, is purchased from Dupont (NEN®, Boston, Mass.). All unlabeled AngII analogs, Dimethylsulfoxide (DMSO), nucleotides, bovine serum albumin (BSA) are purchased from Sigma Chemical Co., St. Louis, MO U.S.A.
Approximately sixteen (16) to twenty (20) beef adrenal glands are processed as follows: fresh adrenal glands received on crushed ice are cleaned of fatty tissues and the tough membranes encapsulating the glands are removed and discarded. The brownish tissue forming the adrenal cortex is scraped off and finely minced with scissors before homogenization. Care is taken to avoid contamination with medullary tissue during dissection. The scraped cortices are suspended in twenty volumes of an ice-cold buffer medium consisting of 10 mM Tris.HCl (pH 7.4 at 22° C.) and containing 1.0 mM EDTA and 0.2M sucrose. Unless otherwise indicated, all subsequent operations are done at 4° C. […] The homogenate is centrifuged first at low speed (3,000 ×g) for 10 min. […] A 100 ul aliquot is withdrawn and the protein content of the preparation is determined by the Lowry's method (Lowry, O.H., Rosebrough, N.F., Farr, A.L. and Randall, R.J., Protein measurement with Folin phenol reagent. J. Biol. Chem., […], 265-275, 1951). […]

| IC50 [µM] | SMILES |
| --- | --- |
| 0.102 | CCCCc1nc2ccc(C3=NN4CCCC4C3)cc2c(=O)n1Cc1ccc(-c2ccccc2-c2nnn[nH]2)cc1 (centres unmarked) [Example 10, 2-Butyl-6-(3a,4,5,6-tetrahydro-3H-pyrrolo[1,2-b]-pyrazol-2-yl)-3-[[2'-(1H-tetrazol-5-yl)[1,1'-biphenyl]-4-yl]methyl]-4(3H)-quinazolinone] |
| 0.0564 | CCCCc1nc2ccc(C3=NN4CCCCC4C3)cc2c(=O)n1Cc1ccc(-c2ccccc2-c2nnn[nH]2)cc1 (centres unmarked) [Example 11] |
